Where two headings read alike, the source gives them in different places.
What was measured:
[1] = tested on: amyloid precursor protein (APP); assay: Down regulation of APP in RAW cells by psychedelic drugs (Example 5); format: cell-based; conditions: post 2 hours treatment (FIG. 9)
ABCF1 [2] = format: cell-based, murine; conditions: RAW264.7, 10 nM, 100 nM, 500 nM, 2 hours post treatment, normalized to GAPDH (FIG. 2)
Experimental: • 1. Macrophage cell line RAW264.7 (ATCC) were grown to 80% confluency in growth media (DMEM+10% FBS+glutamine). • 2. Dilutions of the drugs were made at desired final concentrations for a Dose response experiment. The concentrations' used for this experiment are: 10 nM, 100 nM, 500 nM for Psilocin, Psylocibin, 4-Acetoxy-N, N-dimthyltryptamine, O-Acetyl Psilocin Fumerate, and 4-acetoxyindole. • 3. Untreated cells were used as negative control and Escitalopram at 0.3 mM was used as a positive control to activate ABCF1 expression for all the experiments. Analysis by qPCR:
• 1. 2 hours post treatment with drugs, the reaction was stopped by removing the media with the drug. Cells were then collected and RNA was isolated from these. • 2. After checking the quality of the RNA, cDNA was generated and qPCR was run with ABCF1 primers as the target gene and GAPDH as the house keeping gene. • 3. Normalized against the expression level of GAPDH, the fold change expression level of ABCF1 was calculated and tabulated for all treatment conditions.

ABCF1 [3] = assay: Escitalopram induces ABCF1 in a macrophage cell line (real time RT-PCR); format: cell-based; conditions: RAW macrophages, 0.3 mM, 1 hour
Experimental: RAW macrophages were plated at 1×10^5 cells/well and cultured for 2 days. The cells were incubated with 0.3 mM Escitalopram for 1 hour, and then harvested for total RNA, which was extracted for real time RT-PCR specific for ABCF1 and IL-4. CT values were normalized with CT value for the housekeeping gene from the DMSO control.

| Structure (SMILES) | amyloid precursor protein (APP) expression [1] | ABCF1 transcription / expression (ABCF1 [2]) | ABCF1 expression (ABCF1 [3]; vs DMSO control (FIG. 1)) | difference in the expression (ABCF1 and IL-4) after drug treatment (ABCF1 [3]; 3 separate experiments) | ABCF1 transcription / expression (ABCF1 [2]; listed as psylocin) |
| --- | --- | --- | --- | --- | --- |
| CC(=O)Oc1cccc2[nH]ccc12 [AOI, 4-acetoxyindole] | down regulation | enhance expression of ABCF1 | – | – | – |
| CC(=O)Oc1cccc2[nH]cc(CCN(C)C)c12.O=C(O)/C=C/C(=O)O [APF, O-Acetyl Psilocin Fumerate] | down regulation | enhance expression of ABCF1 | – | – | – |
| CN(C)CCC[C@@]1(c2ccc(F)cc2)OCc2cc(C#N)ccc21 [Escitalopram] | – | – | induces ABCF1 expression | consistent with polarization towards an M2-like phenotype | – |
| CN(C)CCc1c[nH]c2cccc(O)c12 [psilocin, 4-hydroxy-N,N-dimethyltryptamine, reference compound] | – | enhance expression of ABCF1 | – | – | upregulate ABCF1 transcription |
